Paper PMC7673371, “Real-Time Parallel Artificial Membrane Permeability Assay Based on Supramolecular Fluorescent Artificial Receptors” (Frontiers in Chemistry, 2020)
Entries after “also recorded” stand apart in the source; their conditions may differ. Values belong to the compound of their own block, whether it stands above or below them.

Key:
[1] = RT-PAMPA with MDAP∙CB8 fluorescent receptor and Avanti lipid
Method: Analyte solutions were prepared at 1 mmol/L in Millipore water or cosolvents as indicated. The MDAP∙CB8 reporter pair solution contained 5 μmol/L of MDAP and 6 μmol/L of CB8 that were dissolved in Millipore water. Two lipid solutions were used, including the commercial Avanti PAMPA lipid blend I and the self-prepared 2% DOPC in dodecane. To proceed with the assay, 5 μL of the lipid solution was pipetted to the microporous filter and allowed to impregnate evenly; 300 μL of the analyte solution was transferred to the lower donor well, and 100 μL of the reporter pair solution was transferred to the upper acceptor well. The acceptor plate was combined with the donor plate after the solutions had been loaded to define the start point of the assay. Fluorescence readings were taken on a Jasco FP-8500 fluorimeter equipped with a microplate reader with an excitation wavelength at 418 nm and monitored at an emission wavelength of 449 nm.
RT-PAMPA and fluorescence titration experiments were conducted on a Jasco FP-8500 fluorimeter with an attached microplate reader. For RT-PAMPA, the analytes were prepared at 1 mmol/l, while the FARs, including MDAP•CB8 and berberine•cucurbit[7]uril (BE•CB7), were prepared at 5 μmol/l.
In the first step, 5 μl of the lipid solution (Avanti PAMPA Blend I or 2% DOPC) was loaded on the microporous bottom of the acceptor well and allowed to disperse evenly. Subsequently, 100 μl of the FAR solution was loaded in the acceptor well, and 300 μl of the analyte solution was loaded into the donor well. Immediately after the solutions were loaded, the two plates were combined with the acceptor plate on top and the donor plate at the bottom. Fluorescence intensity was recorded at 449 nm with an excitation wavelength of 418 nm for the MDAP•CB8 experiments and recorded at 500 nm with an excitation wavelength of 342 nm for the BE•CB7 experiments. For the titration experiments, 2.5 ml of the 1 μmol/l MDAP•CB8 solution was placed into a 1-cm length quartz cuvette, followed by gradual addition of the indole solution. The solution was excited at 418 nm and the fluorescence spectra were recorded upon each addition of the indole solution. The fluoresc ence decrease at 449 nm was fitted with a 1:l binding model in order to obtain the binding constants of the MDAP•CB8•indole […]
2 Blank control experiments […]
5 Calculation of permeability
The effective permeability (Pe) of an analyte was calculated with the below equation (Wohnsland and […]
logP = log {−C × ln (1 − [analyte]acceptor )}
Based on the principle of the RT-PAMPA, the concentration of analyte in the acceptor well ([analyte]acceptor) and the concentration at equilibrium ([analyte]equilibrium) were obtained with the below equations, with the knowledge of the fluorescence intensity of the acceptor well and the binding constant of the ternary MDAP•CB8•analyte complex. It should be noted that the retention of analyte in the lipid layer was not taken into account.
[analyte]acceptor = [analyte]complex + [analyte]free
= IA − IG × [G ] + IA − IG […]
[analyte] = A G × [G ] + IGA − IG […]
IA: fluorescence intensity of the acceptor well at the chosen time point; IG: initial fluorescence intensity of the acceptor well;
IGA: fluorescence intensity of the ternary complex;
[G0]: initial concentration of FAR in the acceptor well;
[A0]: initial concentration of analyte in the donor well;
VA: volume of the solution in the acceptor well;
VD: volume of the solution in the donor well;
Ka: binding constant of the ternary MDAP•CB8•analyte complex.

[2] = RT-PAMPA with MDAP∙CB8 fluorescent receptor and 2% DOPC lipid; assay type: in vitro ADME; settings: RT-PAMPA conditions, 2% DOPC in dodecane
Method: with an attached microplate reader.
Subsequently, 100 μl of the
Fluorescence intensity was recorded at 449 nm
For the titration experiments,
gradual addition of the indole solution.
were recorded upon each addition of the indole solution. The fluoresc ence decrease at 449 nm was
2 Blank control experiments

[3] = RT-PAMPA with BE•CB7 as FAR, Avanti PAMPA lipid layer; assay type: in vitro ADME; settings: berberine∙cucurbit[7]uril reporter pair, analyte in water
[4] = not told; cited from earlier work
[5] = 1 mmol/L analyte in donor well, MDAP∙CB8 in acceptor well, Avanti lipid, compared with absence of analyte
[6] = RT-PAMPA, fast = sharp fluorescence drop in initial several minutes, slow = response on time scale of several hours

- permeation characteristics (fast or slow) from the permeation curves [1, 6]: slowly permeating
- permeation through the 2% DOPC lipid [2]: did not permeate to a significant extent
Compound: O=c1ccc2ccc(O)cc2o1 [umbelliferone]
- fluorescence response indicative of analyte permeation through the lipid layer [1, 5]: significant fluorescence responses; also recorded: appreciable permeability

- fluorescence response indicative of analyte permeation through the lipid layer [1, 5]: no significant fluorescence response
Compound: CN(C)CCC=C1c2ccccc2COc2ccccc21 [doxepin]

- fluorescence response indicative of analyte permeation through the lipid layer [1, 5]: significant fluorescence responses
- permeation characteristics (fast or slow) from the permeation curves [1, 6]: slowly permeating
Compound: Cc1c(OCC(F)(F)F)ccnc1C[S+]([O-])c1nc2ccccc2[nH]1 (stereo not shown) [lansoprazole]

- fluorescence response indicative of analyte permeation through the lipid layer [1, 5]: no significant fluorescence response
Compound: CN(C)CCc1c[nH]c2ccc(C[C@H]3COC(=O)N3)cc12 [zolmitriptan]

- fluorescence response indicative of analyte permeation through the lipid layer [1, 5]: no significant fluorescence response
Compound: NCCc1c[nH]c2ccc(O)cc12 [serotonin]

- fluorescence response indicative of effective permeation [3]: strong fluorescence response
Compound: OC12CC3CC(CC(C3)C1)C2 [1-adamantanol]

- fluorescence response indicative of analyte permeation through the lipid layer ([1]; PAMPA): significant fluorescence responses
- permeation characteristics (fast or slow) from the permeation curves ([1]; PAMPA): slowly permeating
Compound: NC(=O)[C@@H](N)Cc1c[nH]c2ccccc12 [L-tryptophanamide]
- permeability coefficient (logPe) [4]: −5.56

Compound: CCC(=O)Nc1ccc(Cl)c(Cl)c1 [propanil]
- fluorescence response indicative of analyte permeation through the lipid layer [1, 5]: significant fluorescence responses
- permeation characteristics (fast or slow) from the permeation curves [1, 6]: Fast permeation

- fluorescence response indicative of analyte permeation through the lipid layer [1, 5]: no significant fluorescence response
Compound: N[C@@H](Cc1ccccc1)C(=O)O [L-Phenylalanine]

- influence of organic cosolvent in donor well on permeation curves ([1]; 0.1 mmol/L in 2 and 20% ethanol, initial hour): overlapped
- fluorescence response indicative of analyte permeation through the lipid layer [1, 5]: significant fluorescence responses
- permeation characteristics (fast or slow) from the permeation curves [1, 6]: Fast permeation
Compound: c1ccc2[nH]c(-c3cscn3)nc2c1 [thiabendazole]

- fluorescence response indicative of analyte permeation through the lipid layer [1, 5]: significant fluorescence responses
- permeation characteristics (fast or slow) from the permeation curves [1, 6]: Fast permeation
Compound: O=c1ccc2ccccc2o1 [coumarin]

Compound: c1ccc2[nH]ccc2c1 [indole]
- fluorescence response indicative of analyte permeation through the lipid layer [1, 5]: significant fluorescence responses
- permeation characteristics (fast or slow) from the permeation curves [1, 6]: Fast permeation
- log Pe ([1]; indole 0.010 mmol/l, time 0.15 h): –4.55
- log Pe ([1]; indole 0.010 mmol/l, time 0.30 h): –4.67
- log Pe ([1]; indole 0.010 mmol/l, time 0.45 h): –4.59
- log Pe ([1]; indole 0.010 mmol/l, time 0.58 h): –4.52
- log Pe ([1]; indole 0.010 mmol/l, time 0.73 h): –4.53
- log Pe ([1]; indole 0.010 mmol/l, time 0.87 h): –4.52
- log Pe ([1]; indole 0.010 mmol/l, time 1.43 h): –4.55
- log Pe ([1]; indole 0.010 mmol/l, time 1.85 h): –4.59
- log Pe ([1]; indole 0.1 mmol/l, time 0.15 h): –4.70
- log Pe ([1]; indole 0.1 mmol/l, time 0.30 h): –4.72
- log Pe ([1]; indole 0.1 mmol/l, time 0.45 h): –4.74
- log Pe ([1]; indole 0.1 mmol/l, time 0.58 h): –4.73
- log Pe ([1]; indole 0.1 mmol/l, time 0.73 h): –4.74
- log Pe ([1]; indole 0.1 mmol/l, time 0.87 h): –4.72
- log Pe ([1]; indole 0.1 mmol/l, time 1.43 h): –4.81
- log Pe ([1]; indole 0.1 mmol/l, time 1.85 h): –4.87
- log Pe ([1]; indole 1.0 mmol/l, time 0.15 h): –5.15
- log Pe ([1]; indole 1.0 mmol/l, time 0.30 h): –5.09
- log Pe ([1]; indole 1.0 mmol/l, time 0.45 h): –5.17
- log Pe ([1]; indole 1.0 mmol/l, time 0.58 h): –5.21
- log Pe ([1]; indole 1.0 mmol/l, time 0.73 h): –5.28
- log Pe ([1]; indole 1.0 mmol/l, time 0.87 h): –5.32
- log Pe ([1]; indole 1.0 mmol/l, time 1.43 h): –5.49
- log Pe ([1]; indole 1.0 mmol/l, time 1.85 h): –5.59
